Tests used:
[1] = test system: patients suffering from Parkinson's Disease; settings: patients with Parkinson's Disease treated for psychoses; cited from earlier work
[2] = test system: cynomolgus monkeys exposed to 1-methyl-4-phenyl-1,2,3,6-tetrahydropyridine (MPTP)
Description: Quetiapine may be administered to cynomolgus monkeys exposed to 1-methyl-4-phenyl-1,2,3,6-tetrahydropyridine (MPTP) and which therefore have MPTP-induced Parkinson's Disease. Such monkeys are described by Blanchet et al., Experimental Neurology, 153, 214-222 (1998).
The monkeys are assessed according to the Laval University Disability Scale for MPTP monkeys with the following motor and behavioural parameters scored: posture (normal, flexed, crouched); mobility (normal, passive); climbing (present, absent); gait (normal, abnormal); tremor (present, absent); holding food (present, absent); vocalising (present, absent); grooming (present, absent); and social interaction (present, absent).
Quetiapine may be administered at various dosage values, either alone or with varying dosages of levodopa, and scoring is carried out at regular intervals.
Quetiapine was administered subcutaneously to 8 cynomolgus monkeys at doses of 2 mg/Kg and 4 mg/Kg.

For OCCOCCN1CCN(C2=Nc3ccccc3Sc3ccccc32)CC1 [Quetiapine, 11-(4-[2-(2-hydroxyethoxy)ethyl]-l-piperazinyl)dibenzo[b,f] [1.4]-thiazepine], the “exacerbation of extra-pyramidal symptoms” value [1] is given as “no exacerbation of extra-pyramidal symptoms”, the “levodopa effect on Parkinson's Disease symptoms” value ([2]; quetiapine 2 mg/Kg and 4 mg/Kg subcutaneously with levodopa) is given as “unchanged” and the “reduction of levodopa-induced dyskinesias, compared with the 4 mg/Kg dose” value ([2]; quetiapine 2 mg/Kg subcutaneously, 8 cynomolgus monkeys) is given as “less effective”. For the same molecule, the “reduction of maximum levodopa-induced dyskinesias” value ([2]; quetiapine 4 mg/Kg subcutaneously, levodopa dose sufficient to produce maximum dyskinesias, 8 cynomolgus monkeys) was 41% and the “reduction of moderate levodopa-induced dyskinesias” value ([2]; quetiapine 4 mg/Kg subcutaneously, levodopa dose sufficient to produce moderate dyskinesias, 8 cynomolgus monkeys) was 57%.

— patent US20040058909A1, “Method of treatment” (priority 2003, published 2004)
